Marks after values point to notes of the source that are not given here.

Data set [1] relates to Dunning R-3327 rat prostatic cancers. The note with it: literature report; cited from earlier work.
The conditions of data set [2]: beagle dog, literature; cited from earlier work.
Data set [3] relates to Dunning R-3327 AT-1 tumour. The data set can be described thus: Primary screen: tumour growth inhibition, Dunning R-3327 AT-1 prostatic cancer transplanted sc. The data set is classed as in vivo, rat. The protocol:
The compounds of general formula (I) were assayed for their capacity to inhibit of growth of the Dunning R-3327 AT-1 tumour, a prostatic rat cancer.
R-3327 AT-1 Prostatic cancer in man is an angiogenic type of solid tumour. The Dunning R-3327 AT-1 is a prostatic cancer of the rat and suits as an experimental animal model for this disease. The AT-1 tumour is serially transplanted subcutaneously (sc) on syngeneic rats of the Copenhagen strain. Small pieces of the tumour are transplanted sc to recipient rats and treatment of the tumour bearing rats start when the tumours are easily measurable approximately on day 10 after transplantation. Doses of the compounds are given either orally or parentally 5 days a week for four weeks. The tumour growth and body weight gain are monitored during the experimental time.

For data set [4] the following is noted: patients with renal cell carcinoma; cited from earlier work.
The nature of data set [5]: Beagle Pain Syndrome, pro-inflammatory reaction (ESR, AP). The data set is classed as in vivo, beagle dog. The note with it: beagle dogs, five consecutive days.
[6] abbreviates: 8 mg/kg ip, treatment given on Day 11.

Take `CN(C(=O)c1c(O)c2ccccc2n(C)c1=O)c1ccccc1` [Compound E, N-methyl-N-phenyl-1,2-dihydro-4-hydroxy-1-methyl-2-oxo-quinoline-3-carboxamide]: the antitumour effects entry in data set [1] is “antitumour effects”. For the same molecule, in data set [2], the “induction of beagle pain syndrome (fever, myalgia, arthralgia, arteritis)” value was “induces the beagle pain syndrome”. Further, the “% Tumour Weight Reduction” value in data set [3] (4 mg/kg sc) was found to be 30%. For the same molecule, the “inhibition of growth of the Dunning R-3327 AT-1 tumour” value in data set [3] (4 mg/kg, positive treatment control) was 30%. In data set [4], the “patients withdrawn or having dose reductions due to adverse events” value is on record as 40%.
For the molecule `COc1cccc2c1C(=O)c1c(O)c3c(c(O)c1C2=O)C[C@@](O)(C(=O)CO)C[C@@H]3O[C@H]1C[C@H](N)[C@H](O)[C@H](C)O1` [doxorubicin], the “% Tumour Weight Reduction” value in data set [3] (4 mg/kg ip, treatment given on Day 11) stood at 0%. Moreover, in data set [3] (setting [6]), the “% Tumour Weight Reduction” value is reported as 31^b) % and the body weight effect result is “^b)8 mg/kg of doxorubicin caused a body weight loss”.
On to `CC[C@]1(O)C[C@@H]2CN(CCc3c([nH]c4ccccc34)[C@@](C(=O)OC)(c3cc4c(cc3OC)N(C)[C@H]3[C@@](O)(C(=O)OC)[C@H](OC(C)=O)[C@]5(CC)C=CCN6CC[C@]43[C@@H]65)C2)C1` [vinblastine], for which the “% Tumour Weight Reduction” value is reported as 0% in data set [3] (1 mg/kg iv, treatment given on Day 11) and “toxic” in data set [3] (4 mg/kg iv, treatment given on Day 11).
Regarding `CN(C(=O)c1c(O)c2c(Cl)cccc2n(C)c1=O)c1ccc(Cl)cc1` [B, N-methyl-N-(4-chloro-phenyl)-1,2-dihydro-4-hydroxy-5-chloro-1-methyl-2-oxo-quinoline-3-carboxamide], in data set [3] (2 mg/kg po), the “% Tumour Weight Reduction” value came to 28%.
For the molecule `CCN(C(=O)c1c(O)c2c(Cl)cccc2n(C)c1=O)c1ccccc1` [Compound A, N-ethyl-N-phenyl-1,2-dihydro-4-hydroxy-5-chloro-1-methyl-2-oxo-quinoline-3-carboxamide], in data set [5] (1 mg/kg p. o.), the “AP percentage change (Day 8 - baseline)” value is on record as 25% and the “ESR percentage change (Day 8 - baseline)” value stood at 177%. In addition, in data set [5] (10 mg/kg p. o.), the “AP percentage change (Day 8 - baseline)” value was determined as 109% and the “ESR percentage change (Day 8 - baseline)” value came out at 515%. For the same molecule, the “% Tumour Weight Reduction” value in data set [3] (2 mg/kg sc) came to 37%.
`Cc1cccc2c1c(N)c(C(=O)N(C)c1ccccc1)c(=O)n2C` [Compound D, N-methyl-N-phenyl-4-amino-1,2-dihydro-1,5-dimethyl-2-oxo-quinoline-3-carboxamide]: the “% Tumour Weight Reduction” value in data set [3] (2 mg/kg sc) came to 38%.
In the case of `CSc1cccc2c1c(O)c(C(=O)N(C)c1ccc(F)cc1F)c(=O)n2C` [C, N-methyl-N-(2,4-difluoro-phenyl)-1,2-dihydro-4-hydroxy-5-thiomethyl-1-methyl-2-oxo-quinoline-3-carboxamide], the “% Tumour Weight Reduction” value in data set [3] (2 mg/kg po) is 39%.
